A word on the Ki: it is the equilibrium dissociation constant of an inhibitor or competing ligand from its target. Higher therefore signals weaker binding.

Assay [1] deals with Mus musculus. The experiment in a line: Antagonism of delta2 opioid agonist (deltorphin II)-induced antinociception upon intrathecal administration in mice at a dose of 2.5 pmol. The class given is functional.
Assay [2] has as its system Mus musculus. The experiment in a line: Antagonism of delta1 opioid agonist (DPDPE)-induced antinociception upon intrathecal administration in mice at a dose of 2.5 pmol. The assay is classed as functional.
Assay [3] deals with Mus musculus. Briefly: Antagonism of kappa2 opioid agonist (bremazocine)-induced antinociception upon intrathecal administration in mice at a dose of 2.5 pmol. The assay is classed as functional.
Assay [4] deals with T1, Opioid receptor (Mus musculus, UniProt P42866+P32300+P33534). Briefly: Compound was tested for binding affinity on intact HEK cells using [3H]diprenorphine as radioligand singly expressed with delta or kappa receptors. The assay is classed as cell-based. The following applies: hek293.
Assay [5] has as its target T1, Opioid receptor. The experiment in a line: Compound was tested for binding affinity on intact HEK cells using [3H]diprenorphine as radioligand co-expressed with delta and kappa opioid receptors. The class given is cell-based. The following applies: hek293.
Assay [6] concerns Mus musculus. Briefly: Antagonism of kappa1 opioid agonist (U-50,488)-induced antinociception upon intrathecal administration in mice at a dose of 2.5 pmol. The class given is functional.
The target of assay [7] is T1, Opioid receptor. Briefly: Compound was tested for binding affinity on intact HEK cells using [3H]diprenorphine as radioligand singly expressed with delta or kappa receptor. The class given is cell-based, Homo sapiens. The following applies: hek293.
For assay [8], the target named is T1, Opioid receptor. The experiment in a line: Compound was tested for binding affinity on intact HEK cells using [3H]diprenorphine as radioligand co-expressed with delta and kappa opioid receptor. The class given is cell-based. The following applies: hek293.
Assay [9] relates to Mus musculus. The experiment in a line: Antagonism of kappa2 opioid agonist (bremazocine)-induced antinociception upon intrathecal administration in mice at a dose of 25 pmol. The assay is classed as functional.
For assay [10], the system named is Mus musculus. Briefly: Antagonism of delta1 opioid agonist (DPDPE)-induced antinociception upon intrathecal administration in mice at a dose of 25 pmol. The assay is classed as functional.
Assay [11] relates to Mus musculus. The experiment in a line: Antagonism of delta2 opioid agonist (deltorphin II)-induced antinociception upon intrathecal administration in mice at a dose of 25 pmol. The assay is classed as functional.
For assay [12], the system named is Mus musculus. Briefly: Antagonism of kappa2 opioid agonist (bremazocine)-induced antinociception upon intrathecal administration in mice at a dose of 30 pmol. The class given is functional.
Assay [13] deals with Mus musculus. Briefly: Antagonism of kappa1 opioid agonist (U-50,488)-induced antinociception upon intrathecal administration in mice at a dose of 30 pmol. The assay is classed as functional.
The subject of assay [14] is Mus musculus. The experiment in a line: Antagonism of delta1 opioid agonist (DPDPE)-induced antinociception upon intrathecal administration in mice at a dose of 30 pmol. The class given is functional.
Assay [15] relates to Mus musculus. Briefly: Antagonism of delta2 opioid agonist (deltorphin II)-induced antinociception upon intrathecal administration in mice at a dose of 30 pmol. The assay is classed as functional.
For assay [16], the system named is Mus musculus. The experiment in a line: Antagonism of kappa2 opioid agonist (bremazocine)-induced antinociception upon intrathecal administration in mice at a dose of 1.0 pmol. The assay is classed as functional.
The subject of assay [17] is Mus musculus. Briefly: Antagonism of delta2 opioid agonist (deltorphin II)-induced antinociception upon intrathecal administration in mice at a dose of 1.0 pmol. The assay is classed as functional.
Assay [18] concerns Mus musculus. The experiment in a line: Antagonism of delta1 opioid agonist (DPDPE)-induced antinociception upon intrathecal administration in mice at a dose of 1.0 pmol. The assay is classed as functional.
The subject of assay [19] is Mus musculus. The experiment in a line: Antagonism of kappa1 opioid agonist (U-50,488)-induced antinociception upon intrathecal administration in mice at a dose of 25 pmol. The assay is classed as functional.
The test system of assay [20] is Mus musculus. Briefly: Antagonism of kappa2 opioid agonist (bremazocine)-induced antinociception upon intrathecal administration in mice at a dose of 50 pmol. The class given is functional.
The subject of assay [21] is Mus musculus. Briefly: Antagonism of delta1 opioid agonist (DPDPE)-induced antinociception upon intrathecal administration in mice at a dose of 50 pmol. The class given is functional.
Assay [22] has as its system Mus musculus. The experiment in a line: Antagonism of kappa1 opioid agonist (U-50,488)-induced antinociception upon intrathecal administration in mice at a dose of 50 pmol. The assay is classed as functional.
The subject of assay [23] is Mus musculus. The experiment in a line: Antagonism of delta2 opioid agonist (deltorphin II)-induced antinociception upon intrathecal administration in mice at a dose of 50 pmol. The class given is functional.
For assay [24], the system named is Mus musculus. Briefly: Antagonism of kappa2 opioid agonist (bremazocine)-induced antinociception upon intrathecal administration in mice at a dose of 250 pmol. The class given is functional.
The subject of assay [25] is Mus musculus. Briefly: Antagonism of delta2 opioid agonist (deltorphin II)-induced antinociception upon intrathecal administration in mice at a dose of 250 pmol. The assay is classed as functional.
The subject of assay [26] is Mus musculus. The experiment in a line: Antagonism of delta1 opioid agonist (DPDPE)-induced antinociception upon intrathecal administration in mice at a dose of 250 pmol. The assay is classed as functional.
In assay [27] the test system is Mus musculus. Briefly: Antagonism of kappa1 opioid agonist (U-50,488)-induced antinociception upon intrathecal administration in mice at a dose of 250 pmol. The class given is functional.

SMILES strings stand for the structures.

For `NC(=NCCNC(=O)CNC(=O)CNC(=O)CCC(=O)NCC(=O)NCC(=O)Nc1cccc2c3c([nH]c12)[C@@H]1Oc2c(O)ccc4c2C12CCN(CC1CC1)C(C4)[C@]2(O)C3)Nc1ccc2[nH]c3c(c2c1)C[C@@]1(O)C2Cc4ccc(O)c5c4C1(CCN2CC1CC1)[C@H]3O5` (some centres undefined), the ED50 with Mus musculus [1] is 1.1 nM mouse-1; in the assay on Mus musculus [2], 3.4 nM mouse-1; in the assay with Mus musculus [3] it was 1.7 nM mouse-1. The results for the Ki at Opioid receptor [4] and at Opioid receptor [5] were 58.8 nM and 0.5 nM, respectively.
Turning to `NC(=NCCCCNC(=O)CNC(=O)CNC(=O)CCC(=O)NCC(=O)NCC(=O)Nc1cccc2c3c([nH]c12)[C@@H]1Oc2c(O)ccc4c2C12CCN(CC1CC1)C(C4)[C@]2(O)C3)Nc1ccc2[nH]c3c(c2c1)C[C@@]1(O)C2Cc4ccc(O)c5c4C1(CCN2CC1CC1)[C@H]3O5` (some centres undefined), the ED50 in the assay on Mus musculus [6] is reported as 0.6 nM mouse-1; in the assay with Mus musculus [1], 2.2 nM mouse-1; in the assay on Mus musculus [2], 6.3 nM mouse-1; in the assay on Mus musculus [3] it was 1.7 nM mouse-1. The inhibition constant (Ki) on Opioid receptor [7] worked out at 1.1 nM; at Opioid receptor [5], 1.4 nM.
On to `O=C(CCC(=O)NCC(=O)NCC(=O)Nc1cccc2c3c([nH]c12)[C@@H]1Oc2c(O)ccc4c2C12CCN(CC1CC1)C(C4)[C@]2(O)C3)NCC(=O)NCC(=O)NCCCNC(=O)c1cccc2c3c([nH]c12)[C@@H]1Oc2c(O)ccc4c2C12CCN(CC1CC1)C(C4)[C@]2(O)C3` (some centres undefined), for which the Ki is on record as more than 1000 nM at Opioid receptor [8] and 199 nM on Opioid receptor [7]. Further, the ED50 in the assay on Mus musculus [9] is on record as 2.4 nM mouse-1; in the assay with Mus musculus [10] it was 1.1 nM mouse-1; with Mus musculus [11], 2.4 nM mouse-1.
In the case of `N/C(=N\CCCCCNC(=O)CNC(=O)CNC(=O)CCC(=O)NCC(=O)NCC(=O)Nc1cccc2c3c([nH]c12)[C@@H]1Oc2c(O)ccc4c2C12CCN(CC1CC1)C(C4)[C@]2(O)C3)Nc1ccc2[nH]c3c(c2c1)C[C@@]1(O)C2Cc4ccc(O)c5c4C1(CCN2CC1CC1)[C@H]3O5` (some centres undefined), the inhibitory constant (Ki) at Opioid receptor [8] stood at 4.8 nM; at Opioid receptor [7] it was 3.3 nM. The ED50 stood at 2.1 nM mouse-1 in the assay on Mus musculus [1], 2.2 nM mouse-1 with Mus musculus [2] and 4.1 nM mouse-1 with Mus musculus [3].
On to `N/C(=N\CCCNC(=O)CNC(=O)CNC(=O)CCC(=O)NCC(=O)NCC(=O)Nc1cccc2c3c([nH]c12)[C@@H]1Oc2c(O)ccc4c2C12CCN(CC1CC1)C(C4)[C@]2(O)C3)Nc1ccc2[nH]c3c(c2c1)C[C@@]1(O)C2Cc4ccc(O)c5c4C1(CCN2CC1CC1)[C@H]3O5` (some centres undefined), for which the ED50 with Mus musculus [12] is listed as 50.4 nM mouse-1; with Mus musculus [13] it was 1.9 nM mouse-1; with Mus musculus [14], 8 nM mouse-1; in the assay with Mus musculus [15] it was 1.2 nM mouse-1. Besides, the Ki amounted to 63 nM on Opioid receptor [4] and 0.3 nM at Opioid receptor [5].
`N/C(=N\CCCNC(=O)CNC(=O)CNC(=O)CCC(=O)NCC(=O)NCC(=O)Nc1ccc2[nH]c3c(c2c1)C[C@]1(O)C2Cc4ccc(O)c5c4C1(CCN2CC1CC1)[C@@H]3O5)Nc1ccc2[nH]c3c(c2c1)C[C@]1(O)C2Cc4ccc(O)c5c4C1(CCN2CC1CC1)[C@@H]3O5` (some centres undefined): the ED50 in the assay on Mus musculus [12] turned out to be 14.5 nM mouse-1; in the assay with Mus musculus [14], 1.1 nM mouse-1; with Mus musculus [15], 1 nM mouse-1. Also, the inhibition constant Ki is recorded as 54.8 nM at Opioid receptor [7] and more than 1000 nM at Opioid receptor [5].
Consider `N/C(=N\CCCNC(=O)CNC(=O)CCC(=O)NCC(=O)Nc1cccc2c3c([nH]c12)[C@@H]1Oc2c(O)ccc4c2[C@@]12CCN(CC1CC1)[C@H](C4)[C@]2(O)C3)Nc1ccc2[nH]c3c(c2c1)C[C@@]1(O)[C@H]2Cc4ccc(O)c5c4[C@@]1(CCN2CC1CC1)[C@H]3O5`, for which the ED50 with Mus musculus [16] is 2.5 nM mouse-1; with Mus musculus [17], 1.9 nM mouse-1; in the assay with Mus musculus [18], 2 nM mouse-1. Further, the Ki on Opioid receptor [4] is listed as 6.3 nM; at Opioid receptor [5] it was 315 nM.
On to `O=C1/C(=C/c2ccccc2)C[C@@]2(O)[C@H]3Cc4ccc(O)c5c4[C@@]2(CCN3CC2CC2)[C@H]1O5` [BNTX], for which the ED50 in the assay with Mus musculus [9] was 49.8 nM mouse-1; with Mus musculus [10] it was 10.6 nM mouse-1; with Mus musculus [19], 0.9 nM mouse-1; in the assay with Mus musculus [11], 1 nM mouse-1.
As for `Oc1ccc2c3c1O[C@H]1c4oc5ccccc5c4C[C@@]4(O)[C@@H](C2)N(CC2CC2)CC[C@]314` [NALTRIBEN], the ED50 with Mus musculus [20] came to 5.8 nM mouse-1; in the assay on Mus musculus [21] it was 1 nM mouse-1; in the assay with Mus musculus [22] it was 0.8 nM mouse-1; in the assay on Mus musculus [23], 9.1 nM mouse-1.
Consider `Oc1ccc2c3c1O[C@H]1c4[nH]c5c(c4C[C@@]4(O)[C@@H](C2)N(CC2CC2)CC[C@]314)C[C@@]1(O)[C@H]2Cc3ccc(O)c4c3[C@@]1(CCN2CC1CC1)[C@H]5O4` [NORBINALTORPHIMINE], for which the ED50 is recorded as 129.5 nM mouse-1 in the assay with Mus musculus [24], 1 nM mouse-1 with Mus musculus [25], 12.4 nM mouse-1 with Mus musculus [26] and 5.3 nM mouse-1 in the assay with Mus musculus [27].

The values are drawn from ChEMBL document CHEMBL1138828, “A bivalent ligand (KDN-21) reveals spinal delta and kappa opioid receptors are organized as heterodimers that give rise to delta(1) and kappa(2) phenotypes. Selective targeting of delta-kappa heterodimers” (J Med Chem, 2004).
